The supplement of paper PMC10307832

Key:
Test in all cases: relative viability (nuclei count vs DMSO), 5 days (fraction); higher = more cells survive
[1] = compound: C1=CC=C2C(=C1)N=C(S2)C(C#N)C3=NC(=NC=C3)NCCC4=CN=CC=C4 + COc1cccc2cc(-c3nc([C@H]4CC[C@H](C(=O)O)CC4)n4ncnc(N)c34)[nH]c12 [OSI-027] (partner 0.5 µM)
Procedure, shortened: (§1)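 Lung cancer cell lines were seeded in 1536-well plates and dosed by pin tool the next day, with either a single drug or a fixed anchor-drug dose combined with five library-drug doses (not always all listed) spaced in √10 steps. Five days later, one step fixed the cells and stained their nuclei (final 0.05% Triton X-100, 1% formaldehyde, 1 ug/ml Hoechst), and nuclei were counted on 4× images. Relative viability is the nuclei count in treated wells divided by the count in vehicle wells, and each value is the median of duplicate plates.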

[2] = compound: COc1cc2/c(=N/c3ccc(Br)cc3F)nc[nH]c2cc1OCC1CCN(C)CC1 [Vandetanib] + CC(=O)Nc1cccc(-n2c(=O)n(C3CC3)c(=O)c3c(Nc4ccc(I)cc4F)n(C)c(=O)c(C)c32)c1 [Trametinib] (partner 0.02 µM)
Procedure, shortened: as §1

[3] = compound: C1=CC=C2C(=C1)N=C(S2)C(C#N)C3=NC(=NC=C3)NCCC4=CN=CC=C4 + CC(=O)Nc1cccc(-n2c(=O)n(C3CC3)c(=O)c3c(Nc4ccc(I)cc4F)n(C)c(=O)c(C)c32)c1 [Trametinib] (partner 0.02 µM)
Procedure, shortened: as §1

[4] = compound: C#Cc1cccc(Nc2ncnc3cc(OC)c(OCCCCCCC(=O)NO)cc23)c1 [CUDC-101] + O=C(CCCCCCC(=O)Nc1ccccc1)NO [Vorinostat] (partner 1 µM)
Procedure, shortened: as §1

| Cell Line | relative viability ([1]; first compound 0.005 µM) | relative viability ([1]; first compound 0.01581 µM) | relative viability ([1]; first compound 0.05 µM) | relative viability ([1]; first compound 0.1581 µM) | relative viability ([1]; first compound 0.5 µM) | relative viability ([2]; first compound 0.02 µM) | relative viability ([2]; first compound 0.06325 µM) | relative viability ([2]; first compound 0.2 µM) | relative viability ([2]; first compound 0.6325 µM) | relative viability ([2]; first compound 2 µM) | relative viability ([3]; first compound 0.005 µM) | relative viability ([3]; first compound 0.01581 µM) | relative viability ([3]; first compound 0.05 µM) | relative viability ([3]; first compound 0.1581 µM) | relative viability ([3]; first compound 0.5 µM) | relative viability ([4]; first compound 0.01 µM) | relative viability ([4]; first compound 0.03162 µM) | relative viability ([4]; first compound 0.1 µM) | relative viability ([4]; first compound 0.3162 µM) | relative viability ([4]; first compound 1 µM) |
| --- | --- | --- | --- | --- | --- | --- | --- | --- | --- | --- | --- | --- | --- | --- | --- | --- | --- | --- | --- | --- |
| NCI-H1651 | 0.69 | 0.672 | 0.72 | 0.939 | 0.674 | 0.822 | 0.818 | 0.83 | 0.876 | 0.727 | 0.825 | 0.831 | 0.827 | 0.933 | 0.857 | 0.539 | 0.545 | 0.578 | 0.51 | 0.497 |
| NCI-H1666 | 0.776 | 0.839 | 0.804 | 0.849 | 0.812 | 0.844 | 0.817 | 0.879 | 0.764 | 0.815 | 0.923 | 0.838 | 0.907 | 0.836 | 0.847 | 1.1 | 1.01 | 0.951 | 1.06 | 1.06 |
| NCI-H1734 | – | 0.571 | 0.546 | 0.669 | 0.556 | 0.639 | 0.694 | 0.667 | 0.673 | 0.709 | 0.629 | 0.745 | 0.578 | 0.75 | 0.649 | 0.882 | 0.76 | 0.832 | 0.595 | 0.369 |
| NCI-H1755 | 0.709 | 0.733 | 0.727 | 0.745 | 0.67 | 0.749 | 0.731 | 0.794 | 0.749 | 0.751 | 0.764 | 0.736 | 0.746 | 0.848 | 0.761 | 0.759 | 0.741 | 0.73 | 0.67 | 0.637 |
| NCI-H1793 | 0.276 | 0.303 | 0.215 | 0.261 | 0.245 | 0.479 | 0.362 | 0.47 | 0.418 | 0.408 | – | 0.397 | 0.423 | 0.475 | 0.488 | 0.858 | 0.774 | 0.558 | 0.675 | 0.331 |
| NCI-H1915 | 0.623 | 0.583 | 0.619 | 0.671 | 0.584 | 0.29 | 0.291 | 0.29 | 0.329 | 0.292 | – | 0.318 | 0.304 | 0.329 | 0.305 | 0.527 | 0.511 | 0.481 | 0.358 | 0.374 |
| NCI-H1944 | 0.396 | 0.343 | 0.417 | 0.513 | 0.359 | 0.456 | 0.427 | 0.425 | 0.402 | 0.369 | 0.429 | 0.463 | 0.379 | 0.405 | 0.398 | 0.522 | 0.58 | 0.529 | 0.533 | 0.369 |
| NCI-H1975 | 0.511 | 0.819 | 0.613 | 0.811 | 0.283 | 0.356 | 0.344 | 0.378 | 0.35 | 0.365 | 0.377 | 0.362 | 0.293 | 0.414 | 0.329 | 0.687 | 0.712 | 0.781 | 0.75 | 0.642 |
| NCI-H1993 | 0.579 | 0.555 | 0.637 | 0.626 | 0.585 | 0.568 | 0.552 | 0.499 | 0.545 | 0.494 | 0.374 | 0.516 | 0.458 | 0.514 | 0.466 | 0.748 | 1.01 | 0.688 | 0.666 | 0.426 |
| NCI-H2009 | 0.649 | 0.547 | 0.564 | 0.726 | 0.603 | 0.263 | 0.252 | 0.286 | 0.282 | 0.275 | 0.26 | 0.264 | 0.26 | 0.314 | 0.334 | 0.766 | 0.639 | 0.764 | 0.705 | 0.506 |
| NCI-H2023 | 0.285 | 0.418 | 0.31 | 0.355 | 0.275 | 0.498 | 0.507 | – | 0.556 | 0.49 | 0.602 | 0.532 | 0.547 | 0.538 | 0.489 | 0.781 | 0.654 | 0.716 | 0.703 | 0.435 |
| NCI-H2085 | 0.675 | 0.738 | 0.57 | 0.931 | 0.663 | 0.549 | 0.499 | 0.5 | 0.593 | 0.484 | 0.528 | 0.652 | 0.521 | 0.576 | 0.481 | 0.772 | 0.771 | 0.814 | 0.801 | 0.628 |
| NCI-H2087 | 0.557 | 0.629 | 0.495 | 0.548 | 0.483 | 0.211 | 0.221 | 0.23 | 0.213 | 0.2 | 0.222 | 0.201 | 0.203 | 0.212 | 0.186 | 0.928 | 0.886 | 0.684 | 0.528 | 0.38 |
| NCI-H2126 | 0.739 | 0.676 | 0.732 | 0.705 | 0.677 | 0.58 | 0.546 | 0.556 | 0.502 | 0.504 | 0.536 | 0.613 | 0.559 | 0.546 | 0.58 | 0.862 | 0.777 | 0.713 | 0.704 | 0.452 |
